Target: human APJ receptor (Homo sapiens (Human), UniProt P35414)
Assay: biochemical
Format: biochemical
Conditions: [35S]GTPγS binding, CHO membranes expressing human APJ receptor; read-out: Activity hAPJ SPA EC50 IP
In short: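 Membranes of a stable CHO line carrying human APJ (pFLAG-CMV-3) were used in a GTPγS binding format; buffer GDP, MgCl2 and NaCl were optimized, and plates were read after 90 min at RT.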

Sequence of human APJ receptor (P35414 whole entry): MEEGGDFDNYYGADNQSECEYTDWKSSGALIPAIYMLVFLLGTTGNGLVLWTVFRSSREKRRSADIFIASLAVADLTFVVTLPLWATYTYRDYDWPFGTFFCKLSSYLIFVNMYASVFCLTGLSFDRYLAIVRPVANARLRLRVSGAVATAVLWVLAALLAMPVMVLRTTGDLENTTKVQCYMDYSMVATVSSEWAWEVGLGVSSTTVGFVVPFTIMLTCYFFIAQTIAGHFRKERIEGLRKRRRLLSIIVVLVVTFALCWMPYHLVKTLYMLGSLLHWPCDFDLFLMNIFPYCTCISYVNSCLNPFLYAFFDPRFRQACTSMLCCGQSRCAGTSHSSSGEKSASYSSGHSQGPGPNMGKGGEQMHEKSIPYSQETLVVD

Molecule	EC50 [nM]
COc1ncnc(OC)c1-n1c(NS(=O)(=O)[C@@H](C)[C@H](C)c2ncc(C)cn2)nnc1-c1n[nH]c2ccccc12 [Example 427.0, (2S,3R)-N-(4-(4,6-dimethoxypyrimidin-5-yl)-5-(1H-indazol-3-yl)-4H-1,2,4-triazol-3-yl)-3-(5-methylpyrimidin-2-yl)butane-2-sulfonamide]	21
COc1cccc(OC)c1-n1c(NS(=O)(=O)[C@@H](C)[C@H](OC)c2ncc(C)cn2)nnc1-c1nc(C2CC2)cs1 [Example 340.0, (1R,2S)-N-(5-(4-cyclopropyl-1,3-thiazol-2-yl)-4-(2,6-dimethoxyphenyl)-4H-1,2,4-triazol-3-yl)-1-methoxy-1-(5-methyl-2-pyrimidinyl)-2-propanesulfonamide]	0.26
COc1cccc(OC)c1-n1c(NS(=O)(=O)[C@H](C)[C@@H](OC)c2ncc(F)cn2)nnc1-c1ccn(C)n1 (single isomer, unassigned) [Example 117.0, (1S,2R)-N-(4-(2,6-dimethoxyphenyl)-5-(1-methyl-1H-pyrazol-3-yl)-4H-1,2,4-triazol-3-yl)-1-(5-fluoropyrimidin-2-yl)-1-methoxypropane-2-sulfonamide or (1R,2S)-N-(4-(2,6-dimethoxyphenyl)-5-(1-methyl-1H-pyrazol-3-yl)-4H-1,2,4-triazol-3-yl)-1-(5-fluoropyrimidin-2-yl)-1-methoxypropane-2-sulfonamide]	0.69
COc1cccc(OC)c1-n1c(NS(=O)(=O)[C@@H](C)[C@H](C)c2ncc(F)cn2)nnc1-c1cnn2c1CCC2 [Example 479.0, (2S,3R)-N-(5-(5,6-dihydro-4H-pyrrolo[1,2-b]pyrazol-3-yl)-4-(2,6-dimethoxyphenyl)-4H-1,2,4-triazol-3-yl)-3-(5-fluoropyrimidin-2-yl)butane-2-sulfonamide]	0.56
COc1cccc(OC)c1-n1c(NS(=O)(=O)[C@@H](C)[C@H](OC)c2ncc(C)cn2)nnc1-c1csc(C)n1 [Example 338.0, (1R,2S)-N-(4-(2,6-dimethoxyphenyl)-5-(2-methyl-1,3-thiazol-4-yl)-4H-1,2,4-triazol-3-yl)-1-methoxy-1-(5-methyl-2-pyrimidinyl)-2-propanesulfonamide]	0.34
COc1cccc(OC)c1-n1c(NS(=O)(=O)[C@@H](C)[C@H](OC)c2ncc(Cl)cn2)nnc1-c1n[nH]c2ccc(Cl)cc12 [Example 422.0, (1R,2S)-N-(5-(5-chloro-1H-indazol-3-yl)-4-(2,6-dimethoxyphenyl)-4H-1,2,4-triazol-3-yl)-1-(5-chloropyrimidin-2-yl)-1-methoxypropane-2-sulfonamide]	6.2
COc1cccc(OC)c1-n1c(NS(=O)(=O)CCc2ccc(Cl)cc2)nnc1-c1nccs1 [Example 136.0, 2-(4-chlorophenyl)-N-(4-(2,6-dimethoxyphenyl)-5-(thiazol-2-yl)-4H-1,2,4-triazol-3-yl)ethanesulfonamide]	35
COc1ncnc(OC)c1-n1c(NS(=O)(=O)[C@@H](C)[C@H](OC)c2ncc(Cl)cn2)nnc1-c1noc2ccccc12 [Example 420.0, (1R,2S)-N-(5-(benzo[d]isoxazol-3-yl)-4-(4,6-dimethoxypyrimidin-5-yl)-4H-1,2,4-triazol-3-yl)-1-(5-chloropyrimidin-2-yl)-1-methoxypropane-2-sulfonamide]	27
COc1cccc(OC)c1-n1c(NS(=O)(=O)[C@H](C)Cc2ncc(F)cn2)nnc1-c1nc(C)cs1 [Example 103.0]	8.4
COc1cnc([C@@H](OC)[C@H](C)S(=O)(=O)Nc2nnc(-c3ccn(C)n3)n2-c2c(OC)cccc2OC)cn1 (single isomer, unassigned) [Example 308.0, (1R,2S)-N-(4-(2,6-dimethoxyphenyl)-5-(1-methyl-1H-pyrazol-3-yl)-4H-1,2,4-triazol-3-yl)-1-methoxy-1-(5-methoxy-2-pyrazinyl)-2-propanesulfonamide or (1S,2R)-N-(4-(2,6-dimethoxyphenyl)-5-(1-methyl-1H-pyrazol-3-yl)-4H-1,2,4-triazol-3-yl)-1-methoxy-1-(5-methoxy-2-pyrazinyl)-2-propanesulfonamide]	0.58
(2R,3S)-N-(4-(2,6-dimethoxyphenyl)-5-(1-methyl-1H-pyrazol-3-yl)-4H-1,2,4-triazol-3-yl)-3-(5-methyl-1-oxido-2-pyrazinyl)-2-butanesulfonamide and (2S,3R)-N-(4-(2,6-dimethoxyphenyl)-5-(1-methyl-1H-pyrazol-3-yl)-4H-1,2,4-triazol-3-yl)-3-(5-methyl-1-oxido-2-pyrazinyl)-2-butanesulfonamide [Example 280.0]	3.5
COc1cccc(OC)c1-n1c(NS(=O)(=O)[C@H](C)Cc2ncc(F)cn2)nnc1-c1cnccn1 (single isomer, unassigned) [Example 30.0, (R)-N-(4-(2,6-dimethoxyphenyl)-5-(pyrazin-2-yl)-4H-1,2,4-triazol-3-yl)-1-(5-fluoropyrimidin-2-yl)propane-2-sulfonamide or (S)-N-(4-(2,6-dimethoxyphenyl)-5-(pyrazin-2-yl)-4H-1,2,4-triazol-3-yl)-1-(5-fluoropyrimidin-2-yl)propane-2-sulfonamide]	350
CCO[C@@H](c1ncc(Cl)cn1)[C@H](C)S(=O)(=O)Nc1nnc(-c2ccn(C)n2)n1-c1c(OC)cccc1OC (single isomer, unassigned) [Example 353.0, (1S,2S)-1-(5-chloropyrimidin-2-yl)-N-(4-(2,6-dimethoxyphenyl)-5-(1-methyl-1H-pyrazol-3-yl)-4H-1,2,4-triazol-3-yl)-1-ethoxypropane-2-sulfonamide or (1R,2R)-1-(5-chloropyrimidin-2-yl)-N-(4-(2,6-dimethoxyphenyl)-5-(1-methyl-1H-pyrazol-3-yl)-4H-1,2,4-triazol-3-yl)-1-ethoxypropane-2-sulfonamide]	0.22
CCOC(=O)c1ccc(OC)c(-n2c(NS(=O)(=O)CCc3ccc(Cl)cc3)nnc2-c2cccs2)c1 [Example 28.0, Ethyl 3-(3-(2-(4-chlorophenyl)ethylsulfonamido)-5-(thiophen-2-yl)-4H-1,2,4-triazol-4-yl)-4-methoxybenzoate]	6
COc1cccc(OC)c1-n1c(NS(=O)(=O)[C@@H](C)[C@H](C)c2ncc(C)cn2)nnc1-c1cnn2c1CCC2 [Example 487.0, (2S,3R)-N-(5-(5,6-dihydro-4H-pyrrolo[1,2-b]pyrazol-3-yl)-4-(2,6-dimethoxyphenyl)-4H-1,2,4-triazol-3-yl)-3-(5-methylpyrimidin-2-yl)butane-2-sulfonamide]	0.62
COc1cccc(OC)c1-n1c(NS(=O)(=O)[C@@H](C)[C@@H](OC(C)C)c2ncc(Cl)cn2)nnc1-c1cnn2c1CCC2 [Example 447.0, (1S,2S)-1-(5-chloropyrimidin-2-yl)-N-(5-(5,6-dihydro-4H-pyrrolo[1,2-b]pyrazol-3-yl)-4-(2,6-dimethoxyphenyl)-4H-1,2,4-triazol-3-yl)-1-isopropoxypropane-2-sulfonamide]	0.12
COc1cccc(OC)c1-n1c(NS(=O)(=O)[C@@H](C)[C@H](C)c2ncc(C)cn2)nnc1-c1cc2n(n1)CCC2 [Example 219.0, (2S,3R)-N-(5-(5,6-dihydro-4H-pyrrolo[1,2-b]pyrazol-2-yl)-4-(2,6-dimethoxyphenyl)-4H-1,2,4-triazol-3-yl)-3-(5-methyl-2-pyrimidinyl)-2-butanesulfonamide]	1.7
